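48-hour exposure; five concentrations; linearly interpolated endpoints. Abbreviation: GI50, concentration required for 50% inhibition of growth.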 Active and inactive are the calls of the source. Rule as the data show it: active = GI50 up to about 1.1 µM and inactive = higher.
How the values were obtained:
Assay in all cases: inhibition of tumour cell growth, NCI panel, 48 h
DMS-114 = system: DMS-114
DMS-273 = system: DMS-273
HOP-18 = system: HOP-18
KM-20L2 = system: KM-20L2
LXFL 529 = system: LXFL 529
M19-MEL = system: M19-MEL
SNB-78 = system: SNB-78
RXF 631 = system: RXF 631
XF498 = system: XF498

Row | Compound | GI50 (DMS-114) | GI50 (DMS-273) | GI50 (HOP-18) | GI50 (KM-20L2) | GI50 (LXFL 529) | GI50 (M19-MEL) | GI50 (SNB-78) | GI50 (RXF 631) | GI50 (XF498)
1 | Cc1ccc(NC(=O)CSc2nnc(Cc3ccccc3)o2)cc1 | 53.2 µM (inactive) | > 100 µM (inactive) | > 100 µM (inactive) | > 100 µM (inactive) | > 100 µM (inactive) | > 100 µM (inactive) | > 100 µM (inactive) |  | 
2 | CCOC(=O)c1c(NNc2ccccc2)nc2ccccc2c1-c1ccccc1 | 17.1 µM (inactive) | 43.2 µM (inactive) | 28.6 µM (inactive) | 35.5 µM (inactive) | 19 µM (inactive) | 24.3 µM (inactive) | 27 µM (inactive) |  | 
3 | COC(=O)C(=O)Cc1nc2ccccc2s1 | > 100 µM (inactive) | > 100 µM (inactive) | > 100 µM (inactive) | > 100 µM (inactive) | > 100 µM (inactive) | > 100 µM (inactive) | > 100 µM (inactive) |  | 
4 | Cc1ccc(S(=O)(=O)NC(C)C(=O)O)cc1 (stereo not given) |  | > 100 µM (inactive) | > 100 µM (inactive) | > 100 µM (inactive) | > 100 µM (inactive) | > 100 µM (inactive) |  | > 100 µM (inactive) | > 100 µM (inactive)
5 | COc1cc2ccc3c4cc(OC)c(OCc5ccccc5)cc4cnc3c2cc1OC | > 100 µM (inactive) |  |  | > 100 µM (inactive) | > 100 µM (inactive) | > 100 µM (inactive) | > 100 µM (inactive) |  | > 100 µM (inactive)
6 | CCCCCCCCCCCCCCCCSS(C)(=O)=O |  | 27 µM (inactive) | 58.7 µM (inactive) | 37.6 µM (inactive) | 8.75 µM (inactive) |  |  | 16.3 µM (inactive) | 6.1 µM (inactive)
7 | Cn1c(O)c(C(=O)NC2CCCCC2)c(=O)n(C)c1=S |  |  | 3.6 µM (inactive) | 8.04 µM (inactive) | 2.78 µM (inactive) |  |  | 4.91 µM (inactive) | 
8 | CCNc1nnc(CSc2nc(-c3ccccc3)c(-c3ccccc3)[nH]2)s1 | 20.7 µM (inactive) | 22.2 µM (inactive) |  | 27.8 µM (inactive) | 24.7 µM (inactive) | 16.3 µM (inactive) | 30.8 µM (inactive) |  | 
9 | CCCCCCCCC/C=C/C=C/C(=O)NCC(=O)NC1C(O)C(O)C(Nc2ncnc3[nH]cnc23)OC1C(O)CO (stereo not given) | 0.0551 µM (active) | 0.001 µM (active) |  | 0.001 µM (active) | 0.00838 µM (active) | 0.001 µM (active) |  |  | 
10 | CCc1cccc(CC)c1NC(=O)C1=CNC(C)=C(C(=O)Nc2c(CC)cccc2CC)C1c1ccc(O)c(OC)c1 (stereo not given) | 24.5 µM (inactive) |  |  | 49.5 µM (inactive) | 27.1 µM (inactive) | 34.4 µM (inactive) | 28.7 µM (inactive) | 37.9 µM (inactive) | 26.6 µM (inactive)
11 | O=C1CC(c2c(-c3ccccc3)[nH]c3ccccc23)C(=O)N1 (stereo not given) | > 100 µM (inactive) | > 100 µM (inactive) |  | > 100 µM (inactive) | > 100 µM (inactive) | > 100 µM (inactive) | > 100 µM (inactive) | > 100 µM (inactive) | > 100 µM (inactive)
12 | O=C1C=CC(S(=O)(=O)C2=C/C(=C/Nc3ccc(Cl)cc3)C(=O)C=C2)=C/C1=C/Nc1ccc(Cl)cc1 | > 100 µM (inactive) | > 100 µM (inactive) | > 100 µM (inactive) | > 100 µM (inactive) | > 100 µM (inactive) | > 100 µM (inactive) |  | > 100 µM (inactive) | 
13 | Cc1ccc(S(=O)(=O)N2c3ccccc3[C@H]3CCC=C[C@H]32)cc1 | 3.12 µM (inactive) | 3.66 µM (inactive) | 59.3 µM (inactive) | 3.18 µM (inactive) | 9.55 µM (inactive) | 4.68 µM (inactive) | 19.2 µM (inactive) | 10.8 µM (inactive) | 8.65 µM (inactive)
14 | FC(F)(F)C12C34C=CC5(CCC6(C=CC1(CC3)O6)C52C(F)(F)F)O4 (stereo not given) |  | > 100 µM (inactive) | > 100 µM (inactive) | > 100 µM (inactive) | > 100 µM (inactive) | > 100 µM (inactive) | > 100 µM (inactive) |  | > 100 µM (inactive)
15 | Nc1ccc(-c2cc(C(=O)Nc3nccs3)nc(S)n2)cc1 | > 100 µM (inactive) |  | 61.1 µM (inactive) | > 100 µM (inactive) | > 100 µM (inactive) | > 100 µM (inactive) | > 100 µM (inactive) |  | > 100 µM (inactive)
16 | CCOc1ccccc1NC(=O)CCc1nnc2s/c(=C\CCc3ccccc3)c(=O)n12 | > 100 µM (inactive) | > 100 µM (inactive) |  | > 100 µM (inactive) | > 100 µM (inactive) | > 100 µM (inactive) | > 100 µM (inactive) |  | > 100 µM (inactive)
17 | CN1C(=O)N(C)C(N2CCCC2)c2c1nc1ccccn1c2=O (stereo not given) | 56.2 µM (inactive) | 43.4 µM (inactive) | > 100 µM (inactive) | > 100 µM (inactive) | 63.5 µM (inactive) | 92.5 µM (inactive) | 57.4 µM (inactive) |  | 77.8 µM (inactive)
18 | Cn1c(N)[n+](C(=O)OCc2ccccc2)c(=O)c2c1ncn2C(=O)OCc1ccccc1 | 99.8 µM (inactive) | > 100 µM (inactive) | 78.9 µM (inactive) | > 100 µM (inactive) | > 100 µM (inactive) | > 100 µM (inactive) | 41.5 µM (inactive) |  | 
19 | N#CC1(C2SCC[S+]2[O-])C2=C(C(=O)c3ccccc3C2=O)N2CCCC21 (stereo not given) | 2.14 µM (inactive) | 3.03 µM (inactive) | 3.25 µM (inactive) | 4.97 µM (inactive) | 2.74 µM (inactive) | 0.286 µM (active) | 1.49 µM (inactive) | 1.46 µM (inactive) | 2.55 µM (inactive)
20 | COCN1COCN/C1=N\C#N | > 100 µM (inactive) | 98.2 µM (inactive) | > 100 µM (inactive) | > 100 µM (inactive) | > 100 µM (inactive) | > 100 µM (inactive) | > 100 µM (inactive) | > 100 µM (inactive) | > 100 µM (inactive)
21 | CC(CCCOC(c1ccccc1)(c1ccccc1)c1ccccc1)OC(=O)Nc1cc([N+](=O)[O-])cc([N+](=O)[O-])c1 (stereo not given) | 30.6 µM (inactive) | 33.7 µM (inactive) |  |  | 29.2 µM (inactive) | 40.3 µM (inactive) |  | 38.2 µM (inactive) | 
22 | CC(=O)OC[C@]1(C)CCCC2(C)C1CCC1C=C(C)[C@H]3CCC12C3 (stereo not given in full) |  |  |  | 42.9 µM (inactive) | > 100 µM (inactive) | 63.4 µM (inactive) | 45.9 µM (inactive) |  | 
23 | CC(=O)OC1C/C(C)=C/[C@H](O)CC(C)/C=C/[C@@]2(C)CCC(C(C)(C)O)C12 (stereo not given in full) | > 100 µM (inactive) | > 100 µM (inactive) | > 100 µM (inactive) | > 100 µM (inactive) | > 100 µM (inactive) | > 100 µM (inactive) | > 100 µM (inactive) | > 100 µM (inactive) | > 100 µM (inactive)
24 | CC[C@]1(O)C[C@H]2CN(CCc3c([nH]c4ccccc34)[C@@](C(=O)OC)(c3cc4c(cc3OC)N(C)[C@H]3[C@@](O)(C(=O)OC)[C@H](OC(C)=O)[C@]5(CC)C=CCN6CC[C@]43[C@@H]65)C2)C1 |  | 0.000375 µM (active) | 0.573 µM (active) | 0.000397 µM (active) | 0.00045 µM (active) |  | 0.00173 µM (active) | 0.00262 µM (active) | 0.000402 µM (active)

From ChEMBL document CHEMBL1201862, “PubChem BioAssay data set” (2004)
